In PubChem BioAssay (NCI):
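In this assay, cells in 96-well plates receive the compound at five concentrations for 48 hours. Endpoints are linearly interpolated between the surrounding concentrations. At the GI50, growth is halved. TGI is the concentration that stops growth completely.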

What was measured:
Experiment in all cases: NCI tumour cell line growth inhibition, 48 h
MALME-3M melanoma = tested on: MALME-3M melanoma
SW-620 colon = tested on: SW-620 colon
HOP-92 NSCLC = tested on: HOP-92 NSCLC
KM12 colon = tested on: KM12 colon
786-0 renal = tested on: 786-0 renal
UACC-62 melanoma = tested on: UACC-62 melanoma
OVCAR-8 ovarian = tested on: OVCAR-8 ovarian
HCT-116 colon = tested on: HCT-116 colon
SK-MEL-2 melanoma = tested on: SK-MEL-2 melanoma
A498 renal = tested on: A498 renal

For `COC(=O)/C=C/c1cc2c(cc1-c1c(C(=O)O)cc(OC)c(OC)c1OC)OCO2`, the TGI (MALME-3M melanoma) was over 10 µM, the TGI (SW-620 colon) was over 10 µM and the TGI (HOP-92 NSCLC) was over 10 µM. It also gave a TGI (KM12 colon) of over 10 µM, a TGI (786-0 renal) of over 10 µM and a TGI (UACC-62 melanoma) of over 10 µM. For the same molecule, the TGI (OVCAR-8 ovarian) was over 10 µM and the TGI (HCT-116 colon) was over 10 µM.

`COc1ccc(C2ON(c3cccc(C)n3)CC=C2C)cc1` (centres undefined) showed a TGI (SK-MEL-2 melanoma) of 69.4 µM, a TGI (MALME-3M melanoma) of over 100 µM and a TGI (SW-620 colon) of over 100 µM. The TGI (KM12 colon) was over 100 µM, the TGI (786-0 renal) was over 100 µM and the TGI (UACC-62 melanoma) was over 100 µM. It also gave a TGI (OVCAR-8 ovarian) of over 100 µM.

Work on `Cn1cc(C(=O)C[n+]2ccccc2)c2ccccc21` yielded a TGI (A498 renal) of 92.4 µM, a TGI (SK-MEL-2 melanoma) of over 100 µM and a TGI (MALME-3M melanoma) of over 100 µM. The TGI (SW-620 colon) was over 100 µM, the TGI (KM12 colon) was over 100 µM and the TGI (786-0 renal) was over 100 µM. The TGI (UACC-62 melanoma) was over 100 µM, the TGI (OVCAR-8 ovarian) was over 100 µM and the TGI (HCT-116 colon) was over 100 µM.

`COC(=O)CC[C@H](Cc1ccccc1)NC(=O)c1csc([C@@H](C[C@H](C(C)C)N(C)C(=O)[C@@H](NC(=O)[C@H]2CCCCN2C)C(C)C)OC(C)=O)n1` gave a GI50 (A498 renal) of 0.00406 µM, a GI50 (MALME-3M melanoma) of 7.53 µM and a TGI (MALME-3M melanoma) of over 25 µM. For the same molecule, the GI50 (SW-620 colon) was under 0.0025 µM, the TGI (SW-620 colon) was over 25 µM and the GI50 (HOP-92 NSCLC) was 4.93 µM. For the same molecule, the TGI (HOP-92 NSCLC) was over 25 µM, the GI50 (KM12 colon) was under 0.0025 µM and the TGI (KM12 colon) was over 25 µM. For the same molecule, the GI50 (786-0 renal) was under 0.0025 µM, the TGI (786-0 renal) was over 25 µM and the GI50 (UACC-62 melanoma) was under 0.0025 µM. The TGI (UACC-62 melanoma) was over 25 µM, the GI50 (OVCAR-8 ovarian) was 0.00318 µM and the TGI (OVCAR-8 ovarian) was over 25 µM. The GI50 (HCT-116 colon) was under 0.0025 µM and the TGI (HCT-116 colon) was over 25 µM.

Work on `Cc1cc2c(C)nn(Cc3ccc(Cl)cc3)c2c(C#N)c1C` yielded a TGI (SK-MEL-2 melanoma) of over 100 µM, a TGI (MALME-3M melanoma) of over 100 µM and a TGI (SW-620 colon) of over 100 µM. For the same molecule, the TGI (HOP-92 NSCLC) was 95.1 µM, the TGI (786-0 renal) was over 100 µM and the TGI (UACC-62 melanoma) was over 100 µM. It also gave a TGI (OVCAR-8 ovarian) of over 100 µM and a TGI (HCT-116 colon) of over 100 µM.

`Cc1ccc(Cl)cc1NC(=O)c1sc2nc3c(cc2c1N)C(=O)CCC3` showed a GI50 (A498 renal) of 1.86 µM, a TGI (A498 renal) of over 100 µM and a GI50 (SK-MEL-2 melanoma) of 3.14 µM. It also gave a TGI (SK-MEL-2 melanoma) of over 100 µM, a GI50 (SW-620 colon) of 3.68 µM and a TGI (SW-620 colon) of over 100 µM. For the same molecule, the GI50 (HOP-92 NSCLC) was over 100 µM, the TGI (HOP-92 NSCLC) was over 100 µM and the GI50 (KM12 colon) was 3.65 µM. The TGI (KM12 colon) was over 100 µM, the GI50 (786-0 renal) was over 100 µM and the TGI (786-0 renal) was over 100 µM. The GI50 (UACC-62 melanoma) was 4.45 µM, the TGI (UACC-62 melanoma) was over 100 µM and the GI50 (OVCAR-8 ovarian) was over 100 µM. It also gave a TGI (OVCAR-8 ovarian) of over 100 µM, a GI50 (HCT-116 colon) of 5.97 µM and a TGI (HCT-116 colon) of over 100 µM.

In the case of `N#C/C(=C\c1ccc(Br)cc1)n1nnc2ccc(F)cc21`, the GI50 (A498 renal) is reported as 1.7 µM, the TGI (A498 renal) is reported as 3.54 µM and the GI50 (SK-MEL-2 melanoma) is reported as 1.56 µM. It also gave a TGI (SK-MEL-2 melanoma) of 4.98 µM, a GI50 (MALME-3M melanoma) of 1.44 µM and a TGI (MALME-3M melanoma) of 4.68 µM. The GI50 (SW-620 colon) was 0.447 µM, the TGI (SW-620 colon) was 2.34 µM and the GI50 (KM12 colon) was 1.3 µM. For the same molecule, the TGI (KM12 colon) was 4.04 µM, the GI50 (786-0 renal) was 0.846 µM and the TGI (786-0 renal) was 2.6 µM. For the same molecule, the GI50 (UACC-62 melanoma) was 0.713 µM, the TGI (UACC-62 melanoma) was 2.71 µM and the GI50 (OVCAR-8 ovarian) was 1.84 µM. For the same molecule, the TGI (OVCAR-8 ovarian) was 18.2 µM, the GI50 (HCT-116 colon) was 0.741 µM and the TGI (HCT-116 colon) was 2.35 µM.

With `CN(C)CC/[N+]([O-])=C(/c1ccccc1)C12CC3CC(CC(C3)C1)C2` the TGI (A498 renal) was 32.6 µM, the TGI (SK-MEL-2 melanoma) was 34.9 µM and the TGI (MALME-3M melanoma) was 55.2 µM. For the same molecule, the TGI (HOP-92 NSCLC) was 28.8 µM, the TGI (KM12 colon) was 33.3 µM and the TGI (786-0 renal) was 26.8 µM. It also gave a TGI (UACC-62 melanoma) of 27.8 µM, a TGI (OVCAR-8 ovarian) of 31.7 µM and a TGI (HCT-116 colon) of 32 µM.

Work on `O=C(O)CCc1nn2c(nc1=O)sc1ccc3ccccc3c12` yielded a TGI (MALME-3M melanoma) of over 100 µM, a TGI (SW-620 colon) of over 100 µM and a TGI (HOP-92 NSCLC) of over 100 µM. It also gave a TGI (786-0 renal) of over 100 µM, a TGI (UACC-62 melanoma) of over 100 µM and a TGI (OVCAR-8 ovarian) of over 100 µM. For the same molecule, the TGI (HCT-116 colon) was over 100 µM.

In the case of `C=CCC1C(=O)CC2(C)CC(=O)C(CC=C)C12C` (centres undefined), the TGI (MALME-3M melanoma) is reported as over 100 µM, the TGI (SW-620 colon) is reported as over 100 µM and the TGI (HOP-92 NSCLC) is reported as over 100 µM. It also gave a TGI (KM12 colon) of over 100 µM, a TGI (786-0 renal) of over 100 µM and a TGI (UACC-62 melanoma) of over 100 µM. For the same molecule, the TGI (OVCAR-8 ovarian) was over 100 µM and the TGI (HCT-116 colon) was over 100 µM.
